According to BindingDB's records for doi:10.1007/s00044-010-9377-3 (n/a, 2011):

Test: Inhibition of rat intestinal alpha-glucosidase using p-nitrophenyl- alpha-D-glucopyranoside as substrate preincubated for 5 min before addition of substrate measured after 10 min

Row | IC50 [µM] | Structure (SMILES)
1 | 74.1 | COc1ccc(/N=C/c2cc(Br)ccc2O)cc1
2 | 22.7 | O=[N+]([O-])c1ccc(/N=C/c2ccccc2O)cc1
3 | 8.8 | O=Cc1cc(Br)ccc1O [US8614253,3-44]
